Assay results as given in PubChem BioAssay AID330 (DTP/NCI, 2004).
Inconclusive results and toxic doses are left out. The calls were made as follows: active = survival T/C of 150% or more; inactive = T/C below 125% in these data.

Tested on: P388 leukemia ip, CD2F1 mice, survival T/C
Experiment: NCI In Vivo Anticancer Drug Screen. Data for tumor model P388 Leukemia (intraperitoneal) in CD2F1 (CDF1) mice
Details: endpoint: median survival time, higher = longer survival
How it was run: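 Mice carrying the transplanted tumor received test compound or vehicle. Survival was recorded in each group, and the value is the treated-group measurement divided by that of the vehicle-treated control group.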

Measured: T/C

COC(=O)Nc1nnc(Cn2c([N+](=O)[O-])cnc2C)s1
inactive: dose: 100.0 mg/kg/injection, schedule: Q01DX001 (ip), vehicle: Klucel (hydroxypropylcellulose) (HPC) 96 % of control | dose: 200.0 mg/kg/injection, schedule: Q01DX001 (ip), vehicle: Klucel (hydroxypropylcellulose) (HPC) 101 % of control | dose: 400.0 mg/kg/injection, schedule: Q01DX001 (ip), vehicle: Klucel (hydroxypropylcellulose) (HPC) 93 % of control

NC(N)=N/N=C/C(O)C(O)C(O)C(O)CO (stereo not given)
inactive: dose: 60.0 mg/kg/injection, schedule: Q01DX005 (ip), vehicle: saline 100 % of control | dose: 120.0 mg/kg/injection, schedule: Q01DX005 (ip), vehicle: saline 100 % of control | dose: 240.0 mg/kg/injection, schedule: Q01DX005 (ip), vehicle: saline 106 % of control

CCOC(=O)NC(NC(=O)OCC)c1ccc(C(NC(=O)OCC)NC(=O)OCC)cc1
inactive: dose: 100.0 mg/kg/injection, schedule: Q04DX003 (ip), vehicle: saline 99 % of control | dose: 200.0 mg/kg/injection, schedule: Q04DX003 (ip), vehicle: saline 90 % of control | dose: 400.0 mg/kg/injection, schedule: Q04DX003 (ip), vehicle: saline 89 % of control

COc1cc2cc(=O)n(N)c(C)c2cc1OC
inactive: dose: 50.0 mg/kg/injection, schedule: Q01DX009 (ip), vehicle: saline 108 % of control | dose: 100.0 mg/kg/injection, schedule: Q01DX009 (ip), vehicle: saline 106 % of control | dose: 200.0 mg/kg/injection, schedule: Q01DX009 (ip), vehicle: saline 99 % of control

COC(=O)CCCCCCCCCCCCCC1C=CCC1 (stereo not given)
inactive: dose: 100.0 mg/kg/injection, schedule: Q01DX001 (ip), vehicle: saline 101 % of control | dose: 200.0 mg/kg/injection, schedule: Q01DX001 (ip), vehicle: saline 100 % of control | dose: 400.0 mg/kg/injection, schedule: Q01DX001 (ip), vehicle: saline 101 % of control
